Tests used:
[1] = system: Drosophilae containing and expressing human Abeta42 gene; test: Pavlov's olfactory-related instantaneous memory test in Drosophila; type: in vivo; conditions: test medicament 100 μM, 50 μL per 100 drosophilae, 7 consecutive days; FIG. 1 and FIG. 2
Description: Drosophila has a classical learning and memory paradigm, known as Pavlov's olfactory-related instantaneous memory. During the training program, a group of about 100 drosophilae were exposed sequentially to two odors, i.e., 3-octanol and 4-methylcyclohexanol, each odor for 60 seconds, and to fresh air for 45 seconds therebetween. During exposure to the first odor, the drosophilae were electrocuted on their feet (1.5-second pulses at 3.5-second intervals, 60V), while no electrocution was exerted during exposure to the second odor. In order to detect “instantaneous memory” (also known as “learning”), drosophilae were transferred to the selection area in the T maze immediately after training and forced to choose between the two odors. The drosophilae in each T-maze arm were then captured, anesthetized, and counted. The behavior index was calculated from the distribution of drosophilae in the T maze. […] In each experiment, the age of the control group was matched with that of the experimental group.
Pharmacodynamic evaluation of the candidate compounds: Drosophilae containing and expressing human Abeta42 gene were selected as a diseased control, and drosophilae containing but not expressing human Abeta42 gene were selected as a healthy control. The day after emergence of the drosophilae, male drosophilae were selected and fed. Starting from the third day, drosophilae were fed with a test medicament (100 μM, 50 μL per 100 drosophilae) for 7 consecutive days, 4 hours each day. The above memory test was performed on the drosophilae on the tenth day.

[2] = molecular target: hERG potassium channel (Homo sapiens, UniProt Q12809); test: hERG current, whole-cell patch clamp on HEK-hERG stable cell line; type: cell-based
Sequence of hERG potassium channel (Q12809 whole entry): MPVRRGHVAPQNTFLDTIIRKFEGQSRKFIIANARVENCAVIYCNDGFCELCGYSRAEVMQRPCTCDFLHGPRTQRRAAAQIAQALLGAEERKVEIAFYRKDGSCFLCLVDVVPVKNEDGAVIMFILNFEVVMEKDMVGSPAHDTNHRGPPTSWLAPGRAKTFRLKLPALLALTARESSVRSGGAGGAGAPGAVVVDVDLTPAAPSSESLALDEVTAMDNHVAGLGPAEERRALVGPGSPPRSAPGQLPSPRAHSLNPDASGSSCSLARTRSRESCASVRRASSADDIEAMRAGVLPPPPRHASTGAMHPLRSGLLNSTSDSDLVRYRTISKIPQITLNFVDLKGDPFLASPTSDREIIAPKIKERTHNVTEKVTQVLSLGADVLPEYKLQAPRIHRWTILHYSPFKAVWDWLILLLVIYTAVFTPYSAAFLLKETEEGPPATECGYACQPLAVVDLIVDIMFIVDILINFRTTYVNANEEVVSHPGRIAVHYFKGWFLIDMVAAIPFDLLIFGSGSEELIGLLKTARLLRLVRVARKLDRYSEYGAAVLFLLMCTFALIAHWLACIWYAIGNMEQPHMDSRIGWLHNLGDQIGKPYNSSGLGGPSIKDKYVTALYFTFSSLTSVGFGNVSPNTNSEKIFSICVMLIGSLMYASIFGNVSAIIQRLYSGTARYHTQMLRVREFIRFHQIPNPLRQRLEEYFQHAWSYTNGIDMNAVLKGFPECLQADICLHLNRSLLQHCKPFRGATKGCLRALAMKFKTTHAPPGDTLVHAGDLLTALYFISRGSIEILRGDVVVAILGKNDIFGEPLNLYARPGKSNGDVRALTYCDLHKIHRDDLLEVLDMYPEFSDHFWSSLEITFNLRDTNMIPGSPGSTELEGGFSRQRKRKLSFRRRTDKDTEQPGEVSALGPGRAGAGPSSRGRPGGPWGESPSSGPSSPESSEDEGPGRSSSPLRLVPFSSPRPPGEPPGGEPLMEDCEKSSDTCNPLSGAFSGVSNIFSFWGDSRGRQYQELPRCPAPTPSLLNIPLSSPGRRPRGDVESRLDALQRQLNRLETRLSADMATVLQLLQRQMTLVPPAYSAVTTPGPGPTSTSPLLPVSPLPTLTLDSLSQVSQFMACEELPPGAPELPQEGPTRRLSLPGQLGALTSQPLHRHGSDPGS
Description: Rapidly activated human delayed rectifier outward potassium current (IKr) is mainly mediated by hERG ion channels, and participates in human cardiomyocyte repolarization. Pharmaceutical blockade of this current is the main cause of prolonged QT syndrome, even acute arrhythmia and sudden death clinically.
In this experiment, a stable cell line HEK-hERG (from the Academy of Military Medical Sciences) was selected, and the whole-cell patch clamp technique was used to record the hERG current. Cell suspension was collected and added to a 35 mm culture dish, which was placed on an inverted microscope carrier. After cell attachment, perfusion was performed with an extracellular fluid at a flow rate of 1-2 mL/min. A glass microelectrode was drawn in two steps by a micropipette puller, and after filling with electrode inner fluid, the water resistance of the glass microelectrode was 2-5 MΩ. After the whole cell recording mode was established, the clamping potential was maintained to −80 mV. A depolarization voltage was exerted to +60 mV for 850 ms, followed by repolarization to −50 mV for 1275 ms to induce an hERG tail current. After current stabilization, continuous extracellular perfusion administration from a low concentration to a high concentration was adopted. Starting from the low concentration, continuous perfusion was performed until the efficacy was stable, followed by perfusion of the next concentration. When the inhibitory rate of a compound or positive control to the hERG current was less than 50%, the CV of each of five consecutive current values was less than 10%. When the inhibitory rate of a compound or positive control to the hERG current was more than 50% but less than 70%, the CV of each of five consecutive current values was less than 20%. If a current amplitude was reduced by less than 200 pA, or if the inhibitory rate was more than 70%, the CV of each of five consecutive current values was less than 30%.
A certain amount of a test sample was weighed and dissolved into DMSO to prepare a 30 mM stock solution. Prior to the experiment, the above stock solution was diluted by DMSO 10 times and 3 times step by step, and then the solution was diluted by extracellular fluid to a required concentration. The solution at working concentration should be checked for precipitation before use. If precipitation existed, the stock solution would be diluted to increase the final concentration of DMSO in the extracellular fluid. However, the final concentration of DMSO in the extracellular fluid would not exceed 0.5%. Continuous perfusion from low to high concentrations was done during the experiment. The half inhibitory concentration (IC50) of the test sample was obtained by the best fitting of Logistic equation.
When data were processed, stimulus release and signal acquisition were carried out by the software patchmaster; and a patch clamp amplifier amplified the signal and filtered it to 10 KHz. Fitmaster, excel, spass 21.0, and the like were used for further data analysis and curve fitting. The data were shown as mean values±standard deviation. In data processing, when the blocking effect on hERG was determined, the peak value of a tail current and its baseline were corrected. The inhibitory rates of the tail current were used to show the effects of various compounds at different concentrations. The inhibitory rate=100×(the peak value of the tail current before administration−the peak value of the tail current after administration)/the peak value of the tail current before administration %. IC50 values were fitted by the Hill equation:
[formula] wherein, y: I/Icontrol; max: 100%; min: 0%; [drug]: concentration of the test sample; nH: Hill slope; IC50: maximum half inhibition concentration of the test substance.
To induce a peak current of hERG tail current, the clamping potential was maintained at −80 mV, depolarized to 60 mV for 0.85 s, and then repolarized to −50 mV for 1.275 s. […]

[3] = human, Inhibitory effect, Mean value ± standard deviation
[4] = human, Inhibitory effect, individual cells 1-4

In the case of O=C1C=C(OCc2ccc(F)cc2)[C@H](Cc2ccccc2)N1 [Compound 50561], the “ability to improve the learning and memory of drosophilae” value [1] is reported as “best ability to improve the learning and memory of drosophilae”, the Hill coefficient ([2]; Hill equation fit, N=4) is reported as 1.01 and the IC50 ([2]; human) is reported as 26.7 µM. For the same compound, the inhibition at 300 nM [2, 3] was 0.84 ± 3.93%, the inhibition at 1 µM [2, 3] was 3.43 ± 4.42% and the inhibition at 3 µM [2, 3] was 11.3 ± 4.09%. It also gave an inhibition at 10 µM [2, 3] of 25.7 ± 1.31%, an inhibition at 30 µM [2, 3] of 53.6 ± 3.6% and an inhibition at 10 µM [2, 4] of 24.1%. The inhibition at 30 µM [2, 4] was 59.6%.

Reference: US11130733B2, “4-OXO-alkylated tetramic acid compound, preparation method and use thereof” (BEIJING JOEKAI BIOTECH. LLC, priority 2017, dated 2021)
